Laboratory results: patent publication US20230060040A1, “USE OF TRANSFERRIN, TRANSFERRIN RECEPTOR AND ANTIBODY THEREOF IN PREPARATION OF ANTI-SARS-CoV-2 DRUG” (KUNMING INSTITUTE OF ZOOLOGY, CHINESE ACADEMY OF SCIENCES, priority 2020, published 2023)
Where “and” joins values, the source holds several entries; their conditions need not be identical. Identical values can stand only once. Like-named read-outs stand apart in the source and are kept apart here.

Experiments:
SARS-CoV-2 [1] = type: cell-based
SARS-CoV-2 [2] = type: cell-based; conditions: read-out: EC50 by qRT-PCR
SARS-CoV-2 [3] = type: cell-based; conditions: Vero E6 cells, different concentrations, 48 h
SARS-CoV-2 spike protein = SARS-CoV-2 spike protein (Severe acute respiratory syndrome coronavirus 2, UniProt P0DTC2); conditions: SPR, spike protein 3.90625-250 nM, immobilized transferrin receptor

With “transferrin: main iron-containing plasma single-chain glycoprotein, purchased from Sigma, catalog number T4382” the EC50 (SARS-CoV-2 [1]; read-out: EC50 by CPE analysis) was 125 nM, the EC50 (SARS-CoV-2 [1]; read-out: EC50 calculated by CPE) was 80 nM and 50 nM and the EC50 (SARS-CoV-2 [2]) was 160 nM. For the same substance, the “inhibition of SARS-CoV-2 infection” value (SARS-CoV-2 [3]) was “could inhibit SARS-CoV-2 infection”.
In the case of “transferrin receptor: transferrin receptor protein purchased from Sino Biological, catalog number 11020-H07H”, the EC50 (SARS-CoV-2 [1]; read-out: EC50 by CPE analysis) is reported as 80 nM, the EC50 (SARS-CoV-2 [2]) is reported as 93 nM and 50 nM and the “binding of SARS-CoV-2 spike protein to transferrin receptor” value (SARS-CoV-2 spike protein) is reported as “strong binding capacity”. For the same substance, the “inhibition of SARS-CoV-2 infection” value (SARS-CoV-2 [3]) was “could inhibit SARS-CoV-2 infection”.
